Experimental data as given in patent US11096951B2, “Prebiotic composition containing butyryl-fructooligosaccharides” (priority 2018, dated 2021).

Assays:
[1] = tested on: E. coli; experiment: Analysis of bacterial culture supernatant (HPLC organic acids); format: cell-based, Escherichia coli; settings: substance as carbon source
[2] = tested on: all bacteria used for tests; experiment: Microbial growth curve (OD600), all bacteria used for tests; format: cell-based; settings: compared to positive control (glucose)
Description: (§1) All strains were obtained from the official institute of strain distribution or by the food microbiology laboratory of Seoul National University. Eight bifidobacteria strains, four Lactobacillus (lactic acid bacteria) strains, lactis KCTC 2013 (Lactococcus lactis subsp. lactis KCTC 2013), and Streptococcus thermophilus KCTC 3779 were sub-cultured in MRS supplemented with 0.05% (w/v) L-cysteine.HCl (de-Mann-Rogosa-Sharpe broth; Difco, Detroit, USA) at 37° C., twice every 18 hours prior to use. Other strains were sub-cultured in BHIB (brain-heart infusion broth; Difco) under the same culture conditions as above prior to use.
(§2) A basal medium used for the bacterial growth test was sugar-free BHIB (MB Cell, Los Angeles, Calif., USA). […]
(§3) In order to remove glucose or other carbon source present in a culture medium of activated bacteria, cultured bacteria were centrifuged (15,000×g, 5 min), the supernatant was discarded and the precipitated bacteria were washed with PBS (pH 7.4) twice. […] Bacterial proliferation was checked by measuring optical density (OD) of the culture solution, absorbance at 600 nm was measured with a microplate reader (BioRad, Hercules, Calif., USA) and a growth curve was made. Bacterial growth was analyzed by comparing maximum OD600 values at a substance concentration of 1% (w/v). […]

[3] = tested on: B. longum BORI; experiment: Analysis of bacterial culture supernatant (TLC, HPLC organic acids); format: cell-based, Bifidobacterium longum; settings: substance as carbon source
[4] = tested on: Staphylococcus aureus; experiment: Microbial growth curve (OD600); format: cell-based; settings: 1% (w/v)
Description: as §1, §2, §3

[5] = tested on: L. casei; experiment: Analysis of bacterial culture supernatant (HPLC organic acids); format: cell-based, Lactobacillus casei; settings: substance as carbon source
[6] = tested on: E. Faecalis; experiment: Analysis of bacterial culture supernatant (TLC, HPLC organic acids); format: cell-based, Enterococcus faecalis; settings: substance as carbon source
[7] = tested on: Caco-2 cells; experiment: Change in growth of Caco-2 cells depending on medium composition (trypan blue cell count); settings: 4 days
Description: To avoid main use of glucose as an energy source for cell growth in a standard culture medium of Caco-2 cells containing a high concentration of glucose (4.5 g/L), cellular growth was compared in the presence of a high concentration of glucose (4.5 g/L) and pyruvate using a glucose-free DMEM (Dulbecco's modified Eagle's medium; Gibco BRL, Grand Island, N.Y., USA).
10% (w/v) solutions of NaB, FOS and B-FOS in PBS were prepared and filtered through a 0.2 μm membrane filter. NaB, FOS and B-FOS were each prepared at a concentration of 0.005 to 0.06% (w/v) in a DMEM medium containing high concentrations of glucose (4.5 g/L) and pyruvate (Glu+Pyr+) and a DMEM medium not containing the same (Glu−Pyr−), and were then used for the test.
5×10^5 cells were seeded in a dose of 1.5 mL in a 25 cm^2 flask (SPL Life Science, Pocheon, South Korea) and cultured for 3 days in 37° C., 5% CO2 cell incubator until 50% confluence was obtained. Then, the medium was replaced with a medium supplemented with 0.005 to 0.06% (w/v) of NaB, FOS and B-FOS and then cultured under the same conditions for 4 days. The culture supernatant was harvested for testing and adsorbed cells were washed with PBS twice, were treated with trypsin/EDTA, and were isolated from the flask. […] The control group was a medium supplemented with PBS and a mean of values obtained by repeating tests three times is shown.

[8] = tested on: Bac. Thetaiotaomicron; experiment: Analysis of bacterial culture supernatant (HPLC organic acids); format: cell-based; settings: substance as carbon source
[9] = tested on: B. bifidum BGN4; experiment: as above; format: cell-based, Bifidobacterium bifidum; settings: substance as carbon source
[10] = tested on: Bac. Fragilis; experiment: as above; format: cell-based; settings: substance as carbon source
[11] = tested on: B. catenulatum; experiment: as above; format: cell-based, Bifidobacterium catenulatum; settings: substance as carbon source
[12] = tested on: all strains; experiment: Analysis of bacterial culture supernatant (HPLC organic acids), all strains; format: cell-based; settings: medium containing the substance
[13] = tested on: B. longum RD47; experiment: Analysis of bacterial culture supernatant (HPLC organic acids); format: cell-based, Bifidobacterium longum; settings: substance as carbon source
[14] = Cell viability by MTT analysis; format: cell-based; settings: human, Caco-2 cells, percentage of control
Description: MTT analysis was conducted to confirm cytotoxicity derived from B-FOS. 100 μl of Caco-2 cells were seeded at a density of 2,000 cells/well onto a 96-well plate and cultured at 37° C. in a 5% CO2 cell incubator for 48 hours. […] After completion of culture, 20 μl of a 5 mg/mL MTT solution was added to each well, reaction was conducted for 4 hours again and the supernatant was removed. The formed crystal was dissolved in 100 μl of dimethyl sulfoxide (DMSO) and an absorbance at 750 nm was measured using a microplate spectrophotometer. Cell viability was represented as a percentage with respect to the control group with no treatment and a mean of values by repeating the test four times was indicated (FIG. 16).

[15] = tested on: Clostridium butyricum; format: cell-based; settings: 1% (w/v)

With `CCCC(=O)[O-].[Na+]` [NaB, Sodium Butyrate] the Acetic acid [1] was “+ (0.05% (v/v) or less)”, the Butyric acid [1] was “+++ (no more than 0.25% (v/v))” and the Lactic acid [1] was “−”. For the same molecule, the “growth / use by bacteria used for tests” value [2] was “could not be grown well”, the Acetic acid [3] was “+ (0.05% (v/v) or less)” and the Butyric acid [3] was “+++ (no more than 0.25% (v/v))”. The Lactic acid [3] was “+ (0.05% (v/v) or less)”, the growth of bacteria ([4]; vs negative control) was “significantly inhibited” and the “maximum OD600” value ([4]; negative control OD600=0.36) was 0.25. For the same molecule, the Acetic acid [5] was “+ (0.05% (v/v) or less)”, the Butyric acid [5] was “+++ (no more than 0.25% (v/v))” and the Lactic acid [5] was “+ (0.05% (v/v) or less)”. For the same molecule, the Acetic acid [6] was “+ (0.05% (v/v) or less)”, the Butyric acid [6] was “+++ (no more than 0.25% (v/v))” and the Lactic acid [6] was “+ (0.05% (v/v) or less)”. For the same molecule, the “decrease in the number of cells as compared to the control group” value (“decrease in the number of cells” for short) ([7]; Glu+Pyr+ medium, 0.005% (w/v)) was “about 30%”, the “decrease in the number of cells” value ([7]; Glu+Pyr+ medium, 0.04% (w/v)) was about 50% and the “decrease in the number of cells” value ([7]; Glu+Pyr+ medium, 0.06% (w/v)) was about 65%. For the same molecule, the “number of cells vs control group” value ([7]; Glu−Pyr− medium, 0.005% (w/v)) was “increased”, the “number of cells vs control group” value ([7]; Glu−Pyr− medium, 0.02% (w/v)) was “increased” and the “number of cells vs control group” value ([7]; Glu−Pyr− medium, 0.04% (w/v)) was “no significant difference”. For the same molecule, the “decrease in the number of cells” value ([7]; Glu−Pyr− medium, 0.06% (w/v)) was 35%, the Acetic acid [8] was “+ (0.05% (v/v) or less)” and the Butyric acid [8] was “+++ (no more than 0.25% (v/v))”. For the same molecule, the Lactic acid [8] was “−”, the Acetic acid [9] was “+ (0.05% (v/v) or less)” and the Butyric acid [9] was “+++ (no more than 0.25% (v/v))”. The Lactic acid [9] was “+ (0.05% (v/v) or less)”, the Acetic acid [10] was “+ (0.05% (v/v) or less)” and the Butyric acid [10] was “+++ (no more than 0.25% (v/v))”. The Lactic acid [10] was “+ (0.05% (v/v) or less)”, the Acetic acid [11] was “+ (0.05% (v/v) or less)” and the Butyric acid [11] was “+++ (no more than 0.25% (v/v))”. For the same molecule, the Lactic acid [11] was “++ (0.05% (v/v) − 0.25% (v/v))”, the “butyric acid in culture solutions (HPLC)” value [12] was “detected” and the Acetic acid [13] was “+ (0.05% (v/v) or less)”. For the same molecule, the Butyric acid [13] was “+++ (no more than 0.25% (v/v))”, the Lactic acid [13] was “+ (0.05% (v/v) or less)” and the viability at 48 h, 0.1 % (w/v) ([14]; after 48 hours) was 81 ± 15%. The viability at 72 h, 0.1 % (w/v) ([14]; after 72 hours) was 45 ± 6.9%, the growth of bacteria ([15]; vs negative control) was “significantly inhibited” and the “maximum OD600” value ([15]; negative control OD600=0.49) was 0.42.
